# ChEMBL document CHEMBL5608205, “Design, synthesis and biological evaluation of novel SIRT3 inhibitors targeting both NAD+ and substrate binding sites for the treatment of acute myeloid leukemia” (Eur J Med Chem, 2024)
# System: MOLM-13
# Assay: cells
# Conditions: Homo sapiens, MOLM-13, 24 h
row,SMILES,IC50
1,NC(=O)c1cc2ncnc(N3[C@@H]4C[C@H]3CN(C(=O)Nc3ccc(Cl)c(Cl)c3)C4)c2s1,25 µM
2,NC(=O)c1cc2ncnc(N3CCN(C(=O)Nc4ccc(F)cc4F)CC3)c2s1,33.1 µM
3,NC(=O)c1cc2ncnc(N3CCN(C(=O)Nc4ccc(Cl)cc4)CC3)c2s1,4.26 µM
4,Cc1ccc(NC(=O)N2C[C@H]3CC[C@@H](C2)N3c2ncnc3cc(C(N)=O)sc23)cc1,4.73 µM
5,Cc1ccc(NC(=O)N2CCN(c3ncnc4cc(C(N)=O)sc34)CC2)cc1,6.27 µM
6,NC(=O)c1cc2ncnc(N3[C@@H]4C[C@H]3CN(C(=O)Nc3ccccc3Cl)C4)c2s1,> 50 µM
7,NC(=O)c1cc2ncnc(N3[C@@H]4C[C@H]3CN(C(=O)Nc3cc(C(F)(F)F)cc(C(F)(F)F)c3)C4)c2s1,41.5 µM
8,NC(=O)c1cc2ncnc(N3[C@@H]4C[C@H]3CN(C(=O)Nc3ccc(C(F)(F)F)cc3)C4)c2s1,38.3 µM
9,NC(=O)c1cc2ncnc(N3[C@@H]4C[C@H]3CN(C(=O)Nc3ccc(F)cc3F)C4)c2s1,> 50 µM
10,NC(=O)c1cc2ncnc(N3CCN(C(=O)NC4CCCCC4)CC3)c2s1,17.7 µM
11,NC(=O)c1cc2ncnc(N3[C@@H]4C[C@H]3CN(C(=O)Nc3cccc(Cl)c3)C4)c2s1,36.1 µM

# System: MV4-11
# Assay: cells
# Conditions: Homo sapiens, MV4-11, 24 h
row,SMILES,IC50
1,NC(=O)c1cc2ncnc(N3[C@@H]4C[C@H]3CN(C(=O)Nc3ccc(Cl)c(Cl)c3)C4)c2s1,19.9 µM
2,NC(=O)c1cc2ncnc(N3CCN(C(=O)Nc4ccc(F)cc4F)CC3)c2s1,> 50 µM
3,NC(=O)c1cc2ncnc(N3CCN(C(=O)Nc4ccc(Cl)cc4)CC3)c2s1,12.3 µM
4,Cc1ccc(NC(=O)N2C[C@H]3CC[C@@H](C2)N3c2ncnc3cc(C(N)=O)sc23)cc1,18.1 µM
5,Cc1ccc(NC(=O)N2CCN(c3ncnc4cc(C(N)=O)sc34)CC2)cc1,25.7 µM
6,NC(=O)c1cc2ncnc(N3[C@@H]4C[C@H]3CN(C(=O)Nc3ccccc3Cl)C4)c2s1,> 50 µM
7,NC(=O)c1cc2ncnc(N3[C@@H]4C[C@H]3CN(C(=O)Nc3cc(C(F)(F)F)cc(C(F)(F)F)c3)C4)c2s1,26.3 µM
8,NC(=O)c1cc2ncnc(N3[C@@H]4C[C@H]3CN(C(=O)Nc3ccc(C(F)(F)F)cc3)C4)c2s1,26.3 µM
9,NC(=O)c1cc2ncnc(N3[C@@H]4C[C@H]3CN(C(=O)Nc3ccc(F)cc3F)C4)c2s1,> 50 µM
10,NC(=O)c1cc2ncnc(N3CCN(C(=O)NC4CCCCC4)CC3)c2s1,33.3 µM
11,NC(=O)c1cc2ncnc(N3[C@@H]4C[C@H]3CN(C(=O)Nc3cccc(Cl)c3)C4)c2s1,34.1 µM

# System: HL-60
# Assay: cells
# Conditions: Homo sapiens, HL-60, 24 h
row,SMILES,IC50
1,NC(=O)c1cc2ncnc(N3[C@@H]4C[C@H]3CN(C(=O)Nc3ccc(Cl)c(Cl)c3)C4)c2s1,27.1 µM
2,NC(=O)c1cc2ncnc(N3CCN(C(=O)Nc4ccc(F)cc4F)CC3)c2s1,> 50 µM
3,NC(=O)c1cc2ncnc(N3CCN(C(=O)Nc4ccc(Cl)cc4)CC3)c2s1,36.3 µM
4,Cc1ccc(NC(=O)N2C[C@H]3CC[C@@H](C2)N3c2ncnc3cc(C(N)=O)sc23)cc1,36.9 µM
5,Cc1ccc(NC(=O)N2CCN(c3ncnc4cc(C(N)=O)sc34)CC2)cc1,36.3 µM
6,NC(=O)c1cc2ncnc(N3[C@@H]4C[C@H]3CN(C(=O)Nc3ccccc3Cl)C4)c2s1,> 50 µM
7,NC(=O)c1cc2ncnc(N3[C@@H]4C[C@H]3CN(C(=O)Nc3cc(C(F)(F)F)cc(C(F)(F)F)c3)C4)c2s1,31.5 µM
8,NC(=O)c1cc2ncnc(N3[C@@H]4C[C@H]3CN(C(=O)Nc3ccc(C(F)(F)F)cc3)C4)c2s1,36.6 µM
9,NC(=O)c1cc2ncnc(N3[C@@H]4C[C@H]3CN(C(=O)Nc3ccc(F)cc3F)C4)c2s1,> 50 µM
10,NC(=O)c1cc2ncnc(N3CCN(C(=O)NC4CCCCC4)CC3)c2s1,37.1 µM
11,NC(=O)c1cc2ncnc(N3[C@@H]4C[C@H]3CN(C(=O)Nc3cccc(Cl)c3)C4)c2s1,> 50 µM
